From US12492208B2, “Crystal of pyrimidine compound” (TAIHO PHARMACEUTICAL CO., LTD., priority 2020, dated 2025)
Where two headings read alike, the source gives them in different places.

Columns and labels:
[1] = test system: brain metastatic cancer; conditions: clinical tests; cited from earlier work
[2] = non-clinical tests; substrates of p-gp or Bcrp; cited from earlier work
[3] = Dynamic vapor sorption (DVS) test; format: physicochemical; conditions: for hygroscopicity determination: from mass increase under 95% relative humidity; for Weight change rate, Adsorption / Weight change rate, Desorption: 25° C.
Protocol: Dynamic vapor sorption tests were conducted using a type II crystal of compound (I) with1 equivalent of fumaric acid, a free-form type II crystal of the same, a free-form type I crystal of the same, a type V crystal of the same with 1 equivalent of fumaric acid, and a crystal of the same with 1 equivalent of L-tartaric acid obtained in the Examples and Reference Examples.
The dynamic vapor sorption test was conducted for measurement according to the following conditions.
Approximately 10 mg of each sample was packed in a dedicated quartz holder, and the weight of the sample at each humidity was continuously measured and recorded under the following conditions.

[4] = Blood concentration measurement test; format: in vivo, female rats (Crl:CD (SD)); conditions: rat; for AUC(0-t): read-out: AUC0-6hr
Protocol: Blood concentration measurement tests were conducted for the type I crystal of compound (I), the type II crystal of compound (I), and the type II crystal of compound (I) with 1 equivalent of fumarate obtained in the Examples. Specifically, 0.5% HPMC containing 0.1N hydrochloric acid was used for the type I crystal of compound (I) and 0.5% HPMC was used for the type II crystal of compound (I) and the type II crystal of compound (I) with 1 equivalent of fumaric acid to convert each crystal into the compound (I) (free-form) in terms of molecular weight so as to prepare suspensions of 100 mg/10 mL and 300 mg/10 mL. These administration solutions were orally administered to female rats (Crl:CD (SD), Charles River Laboratories Japan, Inc.) kept under feeding conditions at a volume of 10 mL/kg body weight using an oral administration sonde. After administration, the rats were returned to the rat cage and their conditions were checked. Water and feeding were freely available in the cage. At 0.5, 1, 2, 4, and 6 hours after administration, the rats were anesthetized with isoflurane, and approximately 80 μL of blood was collected from the jugular vein using a heparin-coated syringe and an injection needle (25 G).
The collected blood was ice-cooled and plasma was separated by centrifugation. After the blood collection was completed, the rats were returned to the rat cage and the state after awakening of anesthesia was checked. After the final blood collection, the depth of isoflurane anesthesia was checked. Then, the limbs were fixed in a supine position with a small animal experiment holding apparatus, and the abdomen was opened such that each rat was euthanized by exsanguination through an incision in the abdominal aorta and vena cava.
AUC0-6 hr (Area under the blood concentration-time curve for 0 to 6 hours after administration calculated by the trapezoidal method), Cmax (maximum blood concentration), and Tmax (time to reach maximum blood concentration) were calculated from the concentration of the compound (I) in each plasma measured by the MRM method using LC/MS/MS and quantified from the calibration curve using Phoenix WinNonlin (v6.4.0,Certara USA, Inc.).

[5] = Solid stability test; format: physicochemical; conditions: for Amount of related substances after storage / Chemical purity after storage / change in the powder X-ray diffraction pattern / increase in related substances: 60° C. (closed system), 4 weeks
Protocol: The free-form type II crystals of the compound (I) and type II crystals thereof with 1 equivalent of fumaric acid obtained in the Examples and Comparative Examples were evaluated for solid stability after storage for 4 weeks. • Storage condition: 60° C. (closed system) • Storage period: 4 weeks • Stored amount: Approximately 30 mg • Storage container: Glass bottle
Approximately 1 mg of a sample was weighed, dissolved in approximately 1 mL of a liquid mixture of water/acetonitrile (1:1), and 5 μL of this solution was accurately measured. Changes in the amount of related substances (the amount of substances detected other compound (I)) were analyzed by HPLC by the following method. Hplc Analysis Method (Stability Test)
The amount of related substances in the sample solution was measured by HPLC analysis. Handling of the apparatuses, including data processing, was in accordance with the methods and procedures instructed for each apparatus. • Column: XSelect CSH C18 (4.6×150 mm, 3.5 μm) manufactured by Waters • UV detection: 246 nm • Column temperature: 40° C. • Flow rate: 1.0 mL/min • Sample cooler: 5° C. • Sample concentration: 1 mg/mL • Mobile phase A: Liquid mixture of 5 mmol/L ammonium formate buffer (pH 6.5)/acetonitrile (9:1) • Mobile phase B: Acetonitrile

[6] = female, Crl:CD (SD), plasma, po, 100 mg/kg
[7] = oral, 300 mg/kg, listed as Type I crystal of compound (I) (with hydrochloric acid)
[8] = oral, listed as type I crystal of compound (I) with hydrochloric acid
[9] = oral, 100 mg/kg, listed as Type II crystal of compound (I) with 1 equivalent of fumaric acid
[10] = oral, 300 mg/kg, listed as Type II crystal of compound (I) with 1 equivalent of fumaric acid
[11] = listed as Type II crystal with 1 equivalent of fumaric acid

Structure (SMILES)	hygroscopicity determination [3]	Weight change rate, Adsorption ([3]; relative humidity 5%) [%]	Weight change rate, Desorption ([3]; relative humidity 5%) [%]	Weight change rate, Adsorption ([3]; relative humidity 20%) [%]	Weight change rate, Desorption ([3]; relative humidity 20%) [%]	Weight change rate, Adsorption ([3]; relative humidity 40%) [%]	Weight change rate, Desorption ([3]; relative humidity 40%) [%]	Weight change rate, Adsorption ([3]; relative humidity 60%) [%]	Weight change rate, Desorption ([3]; relative humidity 60%) [%]	Weight change rate, Adsorption ([3]; relative humidity 80%) [%]	Weight change rate, Desorption ([3]; relative humidity 80%) [%]	Weight change rate, Adsorption ([3]; relative humidity 95%) [%]	Weight change rate, Desorption ([3]; relative humidity 95%) [%]	AUC 0-6 hr increase when the dose was increased from 100 mg/kg to 300 mg/kg ([4]; oral) [times]	Cmax increase when the dose was increased from 100 mg/kg to 300 mg/kg ([4]; oral) [times]	change in the powder X-ray diffraction pattern [5]	increase in related substances [5]	other results
CS(=O)(=O)CCNCc1ccc(-c2ccc3ncnc(Nc4ccc(OCc5cccc(F)c5)c(Cl)c4)c3c2)o1 [Lapatinib]	–	–	–	–	–	–	–	–	–	–	–	–	–	–	–	–	–	effects against brain metastatic cancer [1]: sufficient effects of these agents could not be obtained; brain penetration properties [2]: limited
C=CC(=O)N1C[C@H](n2c(C#CC3CC3)c(C(=O)N[C@H](C)c3ccccc3)c3c(N)ncnc32)C[C@@H]1C [crystal of compound (I) with 1 equivalent of L-tartaric acid] [7-((3R,5S)-1-acryloyl-5-methylpyrrolidin-3-yl)-4-amino-6-(cyclopropylethynyl)-N—((R)-1-phenylethyl)-7H-pyrrolo[2,3-d]pyrimidine-5-carboxamide]	highly hygroscopic	0.50	0.54	1.05	1.16	1.60	1.67	2.16	2.38	3.26	3.64	6.41	6.41	–	–	–	–	–
C=CC(=O)N1C[C@H](n2c(C#CC3CC3)c(C(=O)N[C@H](C)c3ccccc3)c3c(N)ncnc32)C[C@@H]1C [free-form type I crystal of compound (I), 7-((3R,5S)-1-acryloyl-5-methylpyrrolidin-3-yl)-4-amino-6-(cyclopropylethynyl)-N—((R)-1-phenylethyl)-7H-pyrrolo[2,3-d]pyrimidine-5-carboxamide]	almost non-hygroscopic	0.01	0.01	0.04	0.04	0.10	0.13	0.26	0.60	0.50	0.69	–	0.72	–	–	–	–	Cmax [4, 6]: 2670 nM; AUC(0-t) [4, 6]: 7.42 µM·h; Tmax ([4]; female, Crl:CD (SD), plasma, po, 100 mg/kg, read-out: Tmax): 0.75 h; AUC(0-t) ([4]; female, Crl:CD (SD), plasma, po, 300 mg/kg): 7.11 µM·h; Cmax [4, 7]: 2250 nM; Tmax [4, 7]: 3.25 h; AUC 0-6 hr increase when the dose was increased from 100 mg/kg to 300 mg/kg [4, 8]: 1.0 times; Cmax increase when the dose was increased from 100 mg/kg to 300 mg/kg [4, 8]: 0.8 times
C=CC(=O)N1C[C@H](n2c(C#CC3CC3)c(C(=O)N[C@H](C)c3ccccc3)c3c(N)ncnc32)C[C@@H]1C [free-form type II crystal of compound (I)] [7-((3R,5S)-1-acryloyl-5-methylpyrrolidin-3-yl)-4-amino-6-(cyclopropylethynyl)-N—((R)-1-phenylethyl)-7H-pyrrolo[2,3-d]pyrimidine-5-carboxamide]	almost non-hygroscopic	0.01	0.01	0.02	0.03	0.05	0.06	0.08	0.08	0.10	0.11	–	0.12	1.5	1.2	no change	almost no increase	AUC0-6hr ([4]; oral, 100 mg/kg): 5.79 µM·h; Cmax ([4]; oral, 100 mg/kg): 1880 nM; Tmax ([4]; oral, 100 mg/kg): 1.50 h; AUC0-6hr ([4]; oral, 300 mg/kg): 8.53 µM·h; Cmax ([4]; oral, 300 mg/kg): 2250 nM; Tmax ([4]; oral, 300 mg/kg): 3.33 h; Amount of related substances after storage [5]: 0.12%; Chemical purity after storage [5]: 99.88%; Amount of related substances before storage [5]: 0.13%; Chemical purity before storage [5]: 99.87%
C=CC(=O)N1C[C@H](n2c(C#CC3CC3)c(C(=O)N[C@H](C)c3ccccc3)c3c(N)ncnc32)C[C@@H]1C [type II crystal of compound (I) with 1 equivalent of fumaric] [7-((3R,5S)-1-acryloyl-5-methylpyrrolidin-3-yl)-4-amino-6-(cyclopropylethynyl)-N—((R)-1-phenylethyl)-7H-pyrrolo[2,3-d]pyrimidine-5-carboxamide]	almost non-hygroscopic	0.01	0.04	0.11	0.13	0.18	0.20	0.27	0.30	0.34	0.34	0.38	0.38	1.9	1.9	no change	almost no increase	AUC0-6hr [4, 9]: 6.14 µM·h; Cmax [4, 9]: 2740 nM; Tmax [4, 9]: 1.25 h; AUC0-6 hr relative to the value of the type I crystal of compound (I) with the acid ([4]; oral, 300 mg/kg): 2.4 times; AUC0-6 hr relative to the value of the type II crystal of compound (I) ([4]; oral, 300 mg/kg): 2.4 times; Cmax relative to the value of the type I crystal of compound (I) with the acid ([4]; oral, 300 mg/kg): 1.7 times; Cmax relative to the value of the type II crystal of compound (I) ([4]; oral, 300 mg/kg): 1.4 times; AUC0-6hr [4, 10]: 11.9 µM·h; Cmax [4, 10]: 5340 nM; Tmax [4, 10]: 0.5 h; Amount of related substances after storage [5, 11]: 0.15%; Chemical purity after storage [5, 11]: 99.85%; Amount of related substances before storage [5, 11]: 0.15%; Chemical purity before storage [5, 11]: 99.85%
C=CC(=O)N1C[C@H](n2c(C#CC3CC3)c(C(=O)N[C@H](C)c3ccccc3)c3c(N)ncnc32)C[C@@H]1C [type V crystal of compound (I) with 1 equivalent of fumaric ] [7-((3R,5S)-1-acryloyl-5-methylpyrrolidin-3-yl)-4-amino-6-(cyclopropylethynyl)-N—((R)-1-phenylethyl)-7H-pyrrolo[2,3-d]pyrimidine-5-carboxamide]	almost non-hygroscopic	0.01	0.06	0.11	0.16	0.21	0.27	0.33	0.39	0.47	0.51	–	0.59	–	–	–	–	–
